Results reported in patent publication US20070128217A1 (priority 2003, published 2007).

How the values were obtained:
[1] = tested on: rabbit serum obtained by immunizing a rabbit with the SARS-CoV strain Frankfurt 1; type: binding; set-up: Binding of a rabbit serum to linear peptides / Binding of a rabbit serum to looped peptides / Rabbit serum linear peptides / Rabbit serum looped peptides / Binding of a rabbit serum to linear peptides of protein N of SARS-CoV Urbani (Rabbit serum linear peptides) / Binding of a rabbit serum to looped/cyclic peptides of protein N of SARS-CoV Urbani (Rabbit serum looped peptides): unit not given here
[2] = tested on: antibodies in sera from SARS patients (sera 1a, 1b, 2, 6, 37, 62, London, SARS-yellow, SARS-green); type: binding, human; set-up: Binding of serum 6 to linear peptides of protein X1 of SARS-CoV Urbani / Binding of serum 37 to linear peptides of protein X1 of SARS-CoV Urbani / Binding of serum 6 to looped/cyclic peptide (PEPSCAN-ELISA) / Binding of serum 37 to looped/cyclic peptide (PEPSCAN-ELISA) / Binding of serum 37 to looped/cyclic peptides of protein X1 of SARS-CoV Urbani / Binding of serum 6 to linear peptides of protein X2 / Binding of serum 37 to linear peptides of protein X2 / Binding of serum 37 to looped/cyclic peptides of protein X2 of SARS-CoV Urbani / Binding of serum 6 to linear peptides of protein M of SARS-CoV Urbani / Binding of serum 37 to linear peptides of protein M of SARS-CoV Urbani / Binding of serum 6 to looped/cyclic peptides of protein M of SARS-CoV Urbani / Binding of serum 37 to looped/cyclic peptides of protein M of SARS-CoV Urbani / Binding of serum 6 to linear peptides of protein X3 of SARS-CoV Urbani / Binding of serum 37 to linear peptides of protein X3 of SARS-CoV Urbani / Binding of serum 37 to looped/cyclic peptides of protein X3 of SARS-CoV Urbani / Binding of serum 6 to linear peptides of protein X4 of SARS-CoV Urbani / Binding of serum 37 to linear peptides of protein X4 of SARS-CoV Urbani / Binding of serum 37 to looped/cyclic peptides of protein X4 of SARS-CoV Urbani / Binding of serum 6 to linear peptides of protein X5 of SARS-CoV Urbani / Binding of serum 37 to linear peptides of protein X5 of SARS-CoV Urbani / Binding of serum 37 to looped/cyclic peptides of protein X5 of SARS-CoV Urbani / Binding of serum 6 to linear peptides of protein N of SARS-CoV Urbani / Binding of serum 37 to linear peptides of protein N of SARS-CoV Urbani / Binding of serum 6 to linear peptide (PEPSCAN-ELISA) / Binding of serum 1a to looped/cyclic peptides of protein N of SARS-CoV Urbani / Binding of serum 1b to looped/cyclic peptides of protein N of SARS-CoV Urbani / Binding of serum 2 to looped/cyclic peptides of protein N of SARS-CoV Urbani / Binding of serum 6 to looped/cyclic peptides of protein N of SARS-CoV Urbani / Binding of serum 37 to looped/cyclic peptides of protein N of SARS-CoV Urbani / Binding of serum 62 to looped/cyclic peptides of protein N of SARS-CoV Urbani / Binding of serum London to looped/cyclic peptides of protein N of SARS-CoV Urbani / Binding of serum SARS-green to looped/cyclic peptides of protein N of SARS-CoV Urbani: unit not given here
[3] = tested on: recombinant human anti-SARS-CoV antibody 03-018; type: binding; set-up: Binding of antibody 03-018 to linear peptides of the N protein of SARS-CoV Urbani / Binding of antibody 03-018 to looped/cyclic peptides of the N protein of SARS-CoV Urbani: unit not given here
[4] = tested on: control sera (pooled serum of ten healthy LUMC hospital workers; commercial negative donor pooled serum from the Dutch bloodbank); type: binding, human; set-up: Binding of Control serum LUMC to linear peptides / Binding of Control serum Blood-bank to linear peptides / Binding of Control serum LUMC to looped peptides / Binding of Control Serum Blood-Bank to Looped peptides / Binding of Control serum LUMC to linear peptides of the protein M of SARS-CoV Urbani / Binding of Control serum Blood-bank to linear peptides of the protein M of SARS-CoV Urbani / Binding of Control serum LUMC to looped peptides of the protein M of SARS-CoV Urbani / Binding of Control Serum Blood-Bank to Looped peptides of the protein M of SARS-CoV Urbani: unit not given here

Row | Sequence | Binding of a rabbit serum to linear peptides of protein N of SARS-CoV Urbani (Rabbit serum linear peptides) [1] | Binding of a rabbit serum to looped/cyclic peptides of protein N of SARS-CoV Urbani (Rabbit serum looped peptides) [1] | Binding of serum 1a to linear peptides of protein N of SARS-CoV Urbani [2] | Binding of serum 1a to looped/cyclic peptides of protein N of SARS-CoV Urbani [2] | Binding of serum 1b to linear peptides of protein N of SARS-CoV Urbani [2] | Binding of serum 1b to looped/cyclic peptides of protein N of SARS-CoV Urbani [2] | Binding of serum 2 to linear peptides of protein N of SARS-CoV Urbani [2] | Binding of serum 2 to looped/cyclic peptides of protein N of SARS-CoV Urbani [2] | Binding of serum 6 to linear peptides of protein N of SARS-CoV Urbani [2] | Binding of serum 6 to looped/cyclic peptides of protein N of SARS-CoV Urbani [2] | Binding of serum 37 to linear peptides of protein N of SARS-CoV Urbani [2] | Binding of serum 37 to looped/cyclic peptides of protein N of SARS-CoV Urbani [2] | Binding of serum 62 to linear peptides of protein N of SARS-CoV Urbani [2] | Binding of serum 62 to looped/cyclic peptides of protein N of SARS-CoV Urbani [2] | Binding of serum London to linear peptides of protein N of SARS-CoV Urbani [2] | Binding of serum London to looped/cyclic peptides of protein N of SARS-CoV Urbani [2] | Binding of serum SARS-green to linear peptides of protein N of SARS-CoV Urbani [2] | Binding of serum SARS-green to looped/cyclic peptides of protein N of SARS-CoV Urbani [2] | Binding of serum SARS-yellow to linear peptides of protein N of SARS-CoV Urbani [2] | Binding of serum SARS-yellow to looped/cyclic peptides of protein N of SARS-CoV Urbani [2] | other results
1 | RIGMEVTPSGTWLTY | 0.0 | 0.5 | 0.2 | 0.4 | 0.1 | 0.2 | 0.1 | 0.5 | 0.1 | 0.3 | 0.4 | 0.7 | 0.4 | 0.8 | 0.3 | 0.6 | 0.5 | 0.5 | 0.9 | 0.5 | Binding of antibody 03-018 to linear peptides of the N protein of SARS-CoV Urbani [3]: 0.1; Binding of antibody 03-018 to looped/cyclic peptides of the N protein of SARS-CoV Urbani [3]: 0.2; Control Serum Blood-Bank Looped peptides [4]: 0.8; Control serum Blood-bank linear peptides [4]: 0.5; Control serum LUMC linear peptides [4]: 0.5; Control serum LUMC looped peptides [4]: 0.7
2 | RITFGGPTDSTDNNQ | 0.3 | 0.1 | 0.2 | 0.3 | 0.1 | 0.2 | 0.2 | 0.2 | 0.1 | 0.2 | 0.8 | 0.5 | 0.6 | 0.3 | 0.5 | 0.3 | 0.5 | 0.4 | 1.3 | 0.2 | Recognition of the peptide by antibody 03-018 [3]: recognized; Binding of Control Serum Blood-Bank to Looped peptides [4]: 0.6; Binding of Control serum Blood-bank to linear peptides [4]: 0.6; Binding of Control serum LUMC to linear peptides [4]: 0.5; Binding of Control serum LUMC to looped peptides [4]: 0.5
3 | RPQGLPNNTASWFTA | 0.1 | 0.5 | 0.3 | 0.5 | 0.1 | 0.3 | 0.2 | 0.5 | 0.2 | 0.4 | 0.7 | 0.9 | 0.7 | 0.8 | 0.5 | 0.5 | 0.3 | 0.5 | 0.4 | 0.7 | Binding of antibody 03-018 to linear peptides of the N protein of SARS-CoV Urbani [3]: 0.1; Binding of antibody 03-018 to looped/cyclic peptides of the N protein of SARS-CoV Urbani [3]: 0.2; Binding of Control Serum Blood-Bank to Looped peptides [4]: 0.9; Binding of Control serum Blood-bank to linear peptides [4]: 0.8; Binding of Control serum LUMC to linear peptides [4]: 0.8; Binding of Control serum LUMC to looped peptides [4]: 0.9
4 | RQGTDYKHWPQIAQF | 0.2 | 0.4 | 0.3 | 0.5 | 0.2 | 0.4 | 0.2 | 0.5 | 0.2 | 0.3 | 0.7 | 0.8 | 0.8 | 0.9 | 0.7 | 0.5 | 0.3 | 0.4 | 0.6 | 0.8 | Binding of antibody 03-018 to linear peptides of the N protein of SARS-CoV Urbani [3]: 0.1; Binding of antibody 03-018 to looped/cyclic peptides of the N protein of SARS-CoV Urbani [3]: 0.2; Binding of Control Serum Blood-Bank to Looped peptides [4]: 0.7; Binding of Control serum Blood-bank to linear peptides [4]: 0.7; Binding of Control serum LUMC to linear peptides [4]: 0.7; Binding of Control serum LUMC to looped peptides [4]: 0.8
5 | RQKKQPTVTLLPAAD | 0.1 | 0.4 | 0.3 |  | 0.2 |  | 0.2 |  | 0.2 |  | 0.7 |  | 0.8 |  | 0.6 |  | 0.6 |  | 0.6 |  | Recognition of the peptide by sera of SARS-CoV infected individuals, and form (linear, looped/cyclic) in which it is recognized [2]: recognized in looped/cyclic form; Binding of antibody 03-018 to linear peptides of the N protein of SARS-CoV Urbani [3]: 0.1; Binding of antibody 03-018 to looped/cyclic peptides of the N protein of SARS-CoV Urbani [3]: 0.2; Control Serum Blood-Bank Looped peptides [4]: 0.6; Control serum Blood-bank linear peptides [4]: 0.7; Control serum LUMC linear peptides [4]: 0.8; Control serum LUMC looped peptides [4]: 0.5
